What all share (assay): Radiolabeled ATP kinase assay, panel of 371 kinases (Table S6)
Holding throughout (type): biochemical

In assay [1] the target is T1, panel of 371 human kinases (Homo sapiens, UniProt P08922).
T1 construct: purchased Reaction Biology Corp
Conditions: ROS/ROS1; 0.1 μM; 10 μM ATP; read-out: % Enzyme Activity (relative to DMSO controls). From the text:
(§1) ; FIG. 38C). […]. Further targeted analyses, such as genetic knock-down or knock-out, may be warranted to parse the role of these additional kinases in our model of neurodegeneration.

Assay [2] addresses T2, panel of 371 human kinases (Homo sapiens, UniProt P23443).
T2 construct: purchased Reaction Biology Corp
As to conditions: p70S6K/RPS6KB1; 0.1 μM; 10 μM ATP; read-out: % Enzyme Activity (relative to DMSO controls).
Source text: as §1

Assay [3] concerns the target T3, panel of 371 human kinases (Homo sapiens, UniProt Q9H4B4).
T3 construct: purchased Reaction Biology Corp
As to conditions: PLK3; 0.1 μM; 10 μM ATP; read-out: % Enzyme Activity (relative to DMSO controls).
Source text: as §1

Assay [4] has as its target T4, panel of 371 human kinases (Homo sapiens, UniProt P80192).
T4 construct: purchased Reaction Biology Corp
Conditions: MLK1/MAP3K9; 0.1 μM; 10 μM ATP; read-out: % Enzyme Activity (relative to DMSO controls).
Source text: as §1

Assay [5] deals with T5, panel of 371 human kinases (Homo sapiens, UniProt O75385).
T5 construct: purchased Reaction Biology Corp
As to conditions: ULK1; 0.1 μM; 10 μM ATP; read-out: % Enzyme Activity (relative to DMSO controls).
Source text: as §1

In assay [6] the target is T6, panel of 371 human kinases (Homo sapiens, UniProt P35916).
T6 construct: purchased Reaction Biology Corp
As to conditions: FLT4/VEGFR3; 0.1 μM; 10 μM ATP; read-out: % Enzyme Activity (relative to DMSO controls).
Source text: as §1

For assay [7], the target named is T7, panel of 371 human kinases (Homo sapiens, UniProt P07332).
T7 construct: purchased Reaction Biology Corp
As to conditions: FES/FPS; 0.1 μM; 10 μM ATP; read-out: % Enzyme Activity (relative to DMSO controls).
Source text: as §1

Assay [8] deals with T8, panel of 371 human kinases (Homo sapiens, UniProt Q13164).
T8 construct: purchased Reaction Biology Corp
Conditions: ERK5/MAPK7; 0.1 μM; 10 μM ATP; read-out: % Enzyme Activity (relative to DMSO controls).
Source text: as §1

Assay [9] deals with T9, panel of 371 human kinases (Homo sapiens, UniProt P46734).
T9 construct: purchased Reaction Biology Corp
As to conditions: MEK3; 0.1 μM; 10 μM ATP; read-out: % Enzyme Activity (relative to DMSO controls).
Source text: as §1

The target in assay [10] is T10, panel of 371 human kinases (Homo sapiens, UniProt Q13188).
T10 construct: purchased Reaction Biology Corp
As to conditions: MST2/STK3; 0.1 μM; 10 μM ATP; read-out: % Enzyme Activity (relative to DMSO controls).
Source text: as §1

Assay [11] deals with T11, panel of 371 human kinases (Homo sapiens, UniProt Q92630).
T11 construct: purchased Reaction Biology Corp
Conditions: DYRK2; 0.1 μM; 10 μM ATP; read-out: % Enzyme Activity (relative to DMSO controls).
Source text: as §1

The target of assay [12] is T12, panel of 371 human kinases (Homo sapiens, UniProt Q96SB4).
T12 construct: purchased Reaction Biology Corp
As to conditions: SRPK1; 0.1 μM; 10 μM ATP; read-out: % Enzyme Activity (relative to DMSO controls).
Source text: as §1

Assay [13] addresses T13, panel of 371 human kinases (Homo sapiens, UniProt Q8IY84).
T13 construct: purchased Reaction Biology Corp
As to conditions: NIM1; 0.1 μM; 10 μM ATP; read-out: % Enzyme Activity (relative to DMSO controls).
Source text: as §1

The target in assay [14] is T14, panel of 371 human kinases (Homo sapiens, UniProt Q96NX5).
T14 construct: purchased Reaction Biology Corp
As to conditions: CAMK1g; 0.1 μM; 10 μM ATP; read-out: % Enzyme Activity (relative to DMSO controls).
Source text: as §1

In assay [15] the target is T15, panel of 371 human kinases (Homo sapiens, UniProt P54762).
T15 construct: purchased Reaction Biology Corp
Conditions: EPHB1; 0.1 μM; 10 μM ATP; read-out: % Enzyme Activity (relative to DMSO controls).
Source text: as §1

Assay [16] concerns the target T16, panel of 371 human kinases (Homo sapiens, UniProt P43405).
T16 construct: purchased Reaction Biology Corp
Conditions: SYK; 0.1 μM; 10 μM ATP; read-out: % Enzyme Activity (relative to DMSO controls).
Source text: as §1

The target of assay [17] is T17, panel of 371 human kinases (Homo sapiens, UniProt O75914).
T17 construct: purchased Reaction Biology Corp
Conditions: PAK3; 0.1 μM; 10 μM ATP; read-out: % Enzyme Activity (relative to DMSO controls).
Source text: as §1

For assay [18], the target named is T18, panel of 371 human kinases (Homo sapiens, UniProt Q15759).
T18 construct: purchased Reaction Biology Corp
Conditions: P38b/MAPK11; 0.1 μM; 10 μM ATP; read-out: % Enzyme Activity (relative to DMSO controls).
Source text: as §1

The target of assay [19] is T19, panel of 371 human kinases (Homo sapiens, UniProt Q9NYY3).
T19 construct: purchased Reaction Biology Corp
Conditions: PLK2; 0.1 μM; 10 μM ATP; read-out: % Enzyme Activity (relative to DMSO controls).
Source text: as §1

The target in assay [20] is T20, panel of 371 human kinases (Homo sapiens, UniProt Q96L34).
T20 construct: purchased Reaction Biology Corp
Conditions: MARK4; 0.1 μM; 10 μM ATP; read-out: % Enzyme Activity (relative to DMSO controls).
Source text: as §1

For assay [21], the target named is T21, panel of 371 human kinases (Homo sapiens, UniProt Q6IQ55).
T21 construct: purchased Reaction Biology Corp
Conditions: TTBK2; 0.1 μM; 10 μM ATP; read-out: % Enzyme Activity (relative to DMSO controls).
Source text: as §1

The target of assay [22] is T22, panel of 371 human kinases (Homo sapiens, UniProt P37023).
T22 construct: purchased Reaction Biology Corp
As to conditions: ALK1/ACVRL1; 0.1 μM; 10 μM ATP; read-out: % Enzyme Activity (relative to DMSO controls).
Source text: as §1

Assay [23] concerns the target T23, panel of 371 human kinases (Homo sapiens, UniProt P05129).
T23 construct: purchased Reaction Biology Corp
As to conditions: PKCg; 0.1 μM; 10 μM ATP; read-out: % Enzyme Activity (relative to DMSO controls).
Source text: as §1

Assay [24] has as its target T24, panel of 371 human kinases (Homo sapiens, UniProt O96013).
T24 construct: purchased Reaction Biology Corp
Conditions: PAK4; 0.1 μM; 10 μM ATP; read-out: % Enzyme Activity (relative to DMSO controls).
Source text: as §1

T5 sequence (O75385 whole entry): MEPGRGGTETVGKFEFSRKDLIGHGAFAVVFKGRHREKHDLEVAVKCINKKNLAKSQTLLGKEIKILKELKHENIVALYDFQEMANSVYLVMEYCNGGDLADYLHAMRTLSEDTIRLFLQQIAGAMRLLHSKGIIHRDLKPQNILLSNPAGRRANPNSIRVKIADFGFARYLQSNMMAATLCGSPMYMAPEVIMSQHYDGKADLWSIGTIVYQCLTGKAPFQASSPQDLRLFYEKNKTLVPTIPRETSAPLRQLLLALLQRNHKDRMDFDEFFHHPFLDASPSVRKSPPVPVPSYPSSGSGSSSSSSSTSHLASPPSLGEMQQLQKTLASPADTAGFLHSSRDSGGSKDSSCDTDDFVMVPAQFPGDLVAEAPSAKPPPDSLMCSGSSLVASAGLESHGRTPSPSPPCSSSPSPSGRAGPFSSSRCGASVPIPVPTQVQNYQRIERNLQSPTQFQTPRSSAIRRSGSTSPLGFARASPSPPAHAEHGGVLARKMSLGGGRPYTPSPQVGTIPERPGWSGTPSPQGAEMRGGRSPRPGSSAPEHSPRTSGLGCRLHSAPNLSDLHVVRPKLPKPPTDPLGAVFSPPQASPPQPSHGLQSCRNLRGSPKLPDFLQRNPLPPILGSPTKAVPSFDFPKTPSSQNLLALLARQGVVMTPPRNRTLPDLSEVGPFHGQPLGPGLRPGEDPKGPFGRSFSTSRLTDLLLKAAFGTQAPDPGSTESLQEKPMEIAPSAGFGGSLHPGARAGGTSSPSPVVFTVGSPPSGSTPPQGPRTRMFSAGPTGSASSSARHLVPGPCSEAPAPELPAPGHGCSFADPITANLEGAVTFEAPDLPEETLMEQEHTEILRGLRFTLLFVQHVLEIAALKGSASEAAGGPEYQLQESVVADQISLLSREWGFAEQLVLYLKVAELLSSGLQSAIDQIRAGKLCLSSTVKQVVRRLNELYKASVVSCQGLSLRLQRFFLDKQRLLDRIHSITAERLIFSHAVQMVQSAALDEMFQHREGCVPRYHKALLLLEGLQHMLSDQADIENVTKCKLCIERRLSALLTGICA
T12 sequence (Q96SB4 whole entry): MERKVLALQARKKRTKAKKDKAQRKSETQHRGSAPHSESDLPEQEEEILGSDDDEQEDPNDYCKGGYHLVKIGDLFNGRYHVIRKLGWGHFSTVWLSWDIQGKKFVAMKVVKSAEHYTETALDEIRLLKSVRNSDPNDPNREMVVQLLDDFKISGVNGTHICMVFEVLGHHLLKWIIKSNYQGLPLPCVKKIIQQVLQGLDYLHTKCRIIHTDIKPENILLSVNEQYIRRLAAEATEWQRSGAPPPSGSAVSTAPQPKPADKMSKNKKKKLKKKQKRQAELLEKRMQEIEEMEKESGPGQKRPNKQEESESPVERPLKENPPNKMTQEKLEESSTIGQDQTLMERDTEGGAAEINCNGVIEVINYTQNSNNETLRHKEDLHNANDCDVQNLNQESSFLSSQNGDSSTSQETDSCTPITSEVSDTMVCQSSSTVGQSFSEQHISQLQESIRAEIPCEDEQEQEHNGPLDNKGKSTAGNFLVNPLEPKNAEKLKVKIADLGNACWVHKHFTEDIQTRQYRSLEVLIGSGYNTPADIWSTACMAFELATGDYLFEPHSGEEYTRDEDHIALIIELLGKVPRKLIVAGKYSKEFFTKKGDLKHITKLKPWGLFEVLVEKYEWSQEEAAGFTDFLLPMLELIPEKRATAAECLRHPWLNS
T17 sequence (O75914 whole entry): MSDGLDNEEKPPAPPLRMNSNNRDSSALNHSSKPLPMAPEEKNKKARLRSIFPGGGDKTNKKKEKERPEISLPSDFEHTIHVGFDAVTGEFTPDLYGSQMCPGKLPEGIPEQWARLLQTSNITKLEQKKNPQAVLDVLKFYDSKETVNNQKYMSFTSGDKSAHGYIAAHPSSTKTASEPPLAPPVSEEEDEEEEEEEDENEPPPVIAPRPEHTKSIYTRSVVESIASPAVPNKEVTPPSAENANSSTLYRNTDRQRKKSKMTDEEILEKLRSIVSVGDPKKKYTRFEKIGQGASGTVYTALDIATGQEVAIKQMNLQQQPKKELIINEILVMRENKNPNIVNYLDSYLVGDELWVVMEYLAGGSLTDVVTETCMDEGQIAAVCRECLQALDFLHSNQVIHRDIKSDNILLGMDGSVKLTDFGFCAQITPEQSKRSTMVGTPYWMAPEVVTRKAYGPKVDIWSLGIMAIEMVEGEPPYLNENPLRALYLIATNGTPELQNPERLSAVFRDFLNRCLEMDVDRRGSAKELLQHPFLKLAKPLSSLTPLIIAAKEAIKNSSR
T1 sequence (P08922 28-2347): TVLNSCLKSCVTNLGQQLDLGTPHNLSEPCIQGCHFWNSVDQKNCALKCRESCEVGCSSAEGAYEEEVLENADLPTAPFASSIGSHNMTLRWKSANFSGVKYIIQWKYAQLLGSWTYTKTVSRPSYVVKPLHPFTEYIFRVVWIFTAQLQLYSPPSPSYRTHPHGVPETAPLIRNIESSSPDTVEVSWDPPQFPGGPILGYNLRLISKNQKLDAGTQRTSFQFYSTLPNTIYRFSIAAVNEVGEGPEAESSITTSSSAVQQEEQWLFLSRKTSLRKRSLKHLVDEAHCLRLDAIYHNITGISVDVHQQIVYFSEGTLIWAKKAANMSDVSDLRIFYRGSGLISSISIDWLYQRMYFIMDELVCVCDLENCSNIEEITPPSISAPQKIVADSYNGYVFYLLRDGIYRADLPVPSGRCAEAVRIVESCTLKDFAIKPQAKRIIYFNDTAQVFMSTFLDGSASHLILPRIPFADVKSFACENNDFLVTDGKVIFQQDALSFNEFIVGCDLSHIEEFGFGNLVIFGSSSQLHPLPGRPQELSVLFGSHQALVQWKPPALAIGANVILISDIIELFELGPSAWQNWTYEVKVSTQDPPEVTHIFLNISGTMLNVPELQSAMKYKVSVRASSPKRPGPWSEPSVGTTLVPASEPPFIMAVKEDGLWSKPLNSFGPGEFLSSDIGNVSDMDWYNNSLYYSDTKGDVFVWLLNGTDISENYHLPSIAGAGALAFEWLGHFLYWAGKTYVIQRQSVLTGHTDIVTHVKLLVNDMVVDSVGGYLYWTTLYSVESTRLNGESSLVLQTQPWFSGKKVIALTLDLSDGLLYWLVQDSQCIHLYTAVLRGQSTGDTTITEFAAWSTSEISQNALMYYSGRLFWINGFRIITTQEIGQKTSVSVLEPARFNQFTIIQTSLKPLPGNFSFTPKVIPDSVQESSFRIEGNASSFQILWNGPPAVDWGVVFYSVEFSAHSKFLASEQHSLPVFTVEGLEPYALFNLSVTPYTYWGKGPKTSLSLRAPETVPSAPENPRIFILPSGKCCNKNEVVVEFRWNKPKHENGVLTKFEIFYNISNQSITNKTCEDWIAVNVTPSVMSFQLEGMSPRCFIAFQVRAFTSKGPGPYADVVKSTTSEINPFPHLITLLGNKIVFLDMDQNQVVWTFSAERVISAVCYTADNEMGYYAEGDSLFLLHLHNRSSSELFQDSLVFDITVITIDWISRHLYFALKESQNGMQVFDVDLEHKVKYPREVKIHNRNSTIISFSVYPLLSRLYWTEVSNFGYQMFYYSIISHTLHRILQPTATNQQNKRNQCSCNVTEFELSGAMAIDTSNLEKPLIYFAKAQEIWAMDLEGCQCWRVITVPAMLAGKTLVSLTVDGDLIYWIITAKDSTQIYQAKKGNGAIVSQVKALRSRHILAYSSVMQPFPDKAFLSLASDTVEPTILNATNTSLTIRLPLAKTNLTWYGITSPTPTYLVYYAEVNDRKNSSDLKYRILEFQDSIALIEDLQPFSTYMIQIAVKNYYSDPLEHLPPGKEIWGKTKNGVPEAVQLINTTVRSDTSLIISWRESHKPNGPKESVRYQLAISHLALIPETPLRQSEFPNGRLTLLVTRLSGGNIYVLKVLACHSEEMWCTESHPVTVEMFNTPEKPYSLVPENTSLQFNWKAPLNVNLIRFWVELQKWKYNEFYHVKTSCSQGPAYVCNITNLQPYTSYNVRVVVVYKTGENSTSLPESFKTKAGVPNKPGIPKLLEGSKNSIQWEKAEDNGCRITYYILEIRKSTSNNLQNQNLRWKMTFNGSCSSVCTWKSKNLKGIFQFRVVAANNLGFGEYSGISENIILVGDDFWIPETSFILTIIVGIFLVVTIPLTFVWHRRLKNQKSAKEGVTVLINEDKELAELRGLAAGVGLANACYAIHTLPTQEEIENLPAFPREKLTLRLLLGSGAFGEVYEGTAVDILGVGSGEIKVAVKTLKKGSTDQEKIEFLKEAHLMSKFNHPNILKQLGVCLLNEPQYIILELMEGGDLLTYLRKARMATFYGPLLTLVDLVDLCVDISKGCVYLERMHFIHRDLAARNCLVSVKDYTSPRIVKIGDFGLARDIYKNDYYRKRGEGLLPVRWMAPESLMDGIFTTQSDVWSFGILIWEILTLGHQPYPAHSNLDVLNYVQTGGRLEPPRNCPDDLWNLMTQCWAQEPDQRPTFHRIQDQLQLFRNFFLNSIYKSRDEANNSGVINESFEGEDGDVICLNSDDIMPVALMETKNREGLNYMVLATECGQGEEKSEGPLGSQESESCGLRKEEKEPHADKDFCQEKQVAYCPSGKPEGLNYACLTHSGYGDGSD
T13 sequence (Q8IY84 whole entry): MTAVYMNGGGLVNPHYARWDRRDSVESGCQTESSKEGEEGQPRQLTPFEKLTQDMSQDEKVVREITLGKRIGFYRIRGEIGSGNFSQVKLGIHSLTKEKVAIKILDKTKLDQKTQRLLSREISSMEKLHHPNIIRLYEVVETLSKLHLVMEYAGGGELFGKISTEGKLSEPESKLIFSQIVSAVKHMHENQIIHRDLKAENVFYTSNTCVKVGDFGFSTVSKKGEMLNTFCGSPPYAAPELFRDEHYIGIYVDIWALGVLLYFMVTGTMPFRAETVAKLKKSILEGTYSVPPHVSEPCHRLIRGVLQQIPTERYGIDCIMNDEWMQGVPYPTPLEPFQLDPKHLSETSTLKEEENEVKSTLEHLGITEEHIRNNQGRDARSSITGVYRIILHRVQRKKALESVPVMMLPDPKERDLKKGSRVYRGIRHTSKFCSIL

On to `CN1CCN(Cc2ccc(-c3cnc4[nH]cc(-c5ccc6[nH]ccc6c5)c4c3)cc2)CC1` [Compound 1, 3-(1H-Indol-5-yl)-5-(4-((4-methylpiperazin-1-yl)methyl)phenyl)-1H-pyrrolo[2,3-b]pyridine, reference compound], for which the remaining activity at 0.1 µM in assay [1] is 96%; in assay [2] it was 93.2%; in assay [3], 106%; in assay [4], 48.2%; in [5], 89.7%; in [6] it was 81.7%. Further, the remaining activity at 0.1 µM in assay [7] was found to be 68.2%; in assay [8], 102%; in assay [9] it was 101%; in assay [10] it was 102%; in assay [11], 71.7%; in assay [12] it was 104%. Also, the remaining activity at 0.1 µM in assay [13] worked out at 106%; in assay [14], 97.8%; in assay [15], 83%; in assay [16], 89.6%; in [17] it was 97.3%; in assay [18], 87.4%. In addition, the remaining activity at 0.1 µM in assay [19] stood at 97.2%; in [20], 76%; in assay [21] it was 101%; in assay [22], 106%; in [23], 89%; in assay [24], 88%.

With `OCCN1CCN(Cc2ccc(-c3cnc4[nH]cc(-c5cccc(Cl)c5)c4c3)cc2)CC1` [Compound 12k, 2-(4-(4-(3-(3-Chlorophenyl)-1H-pyrrolo[2,3-b]pyridin-5-yl)benzyl)piperazin-1-yl)ethan-1-ol], the remaining activity at 0.1 µM is 94.2% in assay [1]; 99.3% in assay [2]; 103% in assay [3]; 73.7% in assay [4]; 88.8% in assay [5]; 85.8% in assay [6]. Besides, the remaining activity at 0.1 µM in assay [7] was found to be 77.9%; in assay [8] it was 113%; in assay [9], 99.7%; in assay [10], 86%; in [11], 85.6%; in assay [12], 100%. Also, the remaining activity at 0.1 µM turned out to be 105% in assay [13]; 101% in assay [14]; 98.3% in [15]; 93.9% in assay [16]; 90.8% in assay [17]; 94.2% in [18]. The remaining activity at 0.1 µM in assay [19] was 101%; in [20], 40%; in assay [21], 103%; in assay [22] it was 100%; in [23], 106%; in assay [24] it was 93.8%.

The values are drawn from patent US12227500B2, “Substituted pyrrolo[2,3-b]pyridines for suppressing toxic endoplasmic reticulum stress” (THE TRUSTEES OF COLUMBIA UNIVERSITY IN THE CITY OF NEW YORK, priority 2018, dated 2025).
